# Measurements as given in PMC8482815, “Targeting Host Glycolysis as a Strategy for Antimalarial Development” (Frontiers in Cellular and Infection Microbiology, 2021).
# “Also recorded” adds a separate entry of the source. Read-outs that look alike come from different tables or passages of the source.
# What was measured:
# [1] = Pharmacokinetics of HEX in non-human primates (plasma, NMR 31P-1H HSQC); format: in vivo, cynomolgus monkeys (Macaca fascicularis)
# Procedure: (§1) Adult male cynomolgus monkeys (Macaca fascicularis) with weight of 2.5-3.5 kg were used for PK studies (n = 1). To prepare HEX for injection, a stock solution of 150 mg/mL HEX in water with final pH of 7.2-7.4 was prepared. Just prior to injection, this stock was diluted with saline to desired concentration and filtered with 0.22 µm filter. A dose of 100 mg/Kg of HEX was injected subcutaneously in an overnight fasted monkey. Blood samples were collected at the following time points: before injection, 1 hr, 2 hrs, 4 hrs (when food was also given to a monkey), 8 hrs, and 24 hrs after injection. Also, a dose of 400 mg/Kg of HEX was administrated through oral gavage. To compare the PK studies in non-human primates with rodents, a 400 mg/kg dose of HEX was also injected subcutaneously in female mice (n = 1), and blood was collected before, 1 hr, and 2 hrs after injection. HEX concentrations in plasma were measured by using nuclear magnetic resonance (NMR) spectroscopy. Two hundred microliters of plasma were extracted with four hundred microliters of −20°C precooled methanol and incubated in −20°C for 45 minutes followed by spinning down in 4°C at 17,000 × g for 30 min to separate supernatant. The supernatant then was concentrated by speedvac for 4 hours and dissolved in 470 μL D2O (Sigma Aldrich,151882) and 30 μL D2O with 3%TPS as an internal standard (Sigma Aldrich, 450510) for NMR studies. NMR experiments were performed on Bruker Avance III HD 500 MHz spectrometer equipped with cryoprobe and Bruker 300 MHz with broad band observe probe. […] NMR spectra were analyzed using 3.1 version of TopSpin. HEX was quantified in the sample with high concentration of the drug (100 mpk, 1 hr after SC injection) by comparing integrals of HEX and TSP (reference) in 1H spectra. […]
# [2] = set-up: method as in Lin et al., 2020; details: cynomolgus monkeys, 100 mpk SC; replotted, ref Lin et al., 2020; cited from earlier work
# [3] = system: human erythrocytes; assay: Detection and quantification of MetHb formation in cultured erythrocytes; format: cell-based; details: Homo sapiens, Erythrocyte
# Procedure: (§2) Banked blood (Saint Louis Children’s Hospital) and fresh blood [healthy donors] was washed and stored at 50% hematocrit at 4°C up to 1 month past the clinical expiration date and collection date, respectively. Parasite strains provided by the Malaria Research and Reference Reagent Resource Center (MR4) as follows: 3D7 (MRA-102); K1 (MRA-159); D10 (MRA-201); and IPC-5202 (MRA-1240). Unless indicated, erythrocytes were cultured as previously described at 2% hematocrit in complete media (incomplete media supplemented with 27mM sodium bicarbonate, 11mM glucose, 5mM HEPES, 1mM sodium pyruvate, 0.37mM hypoxanthine, 0.01mM thymidine, 10µg/mL gentamicin, and 0.5% Albumax I (Thermo-Fisher) under 5% O2/5% CO2/90% N2 atmosphere at 37°C ([Guggisberg et al., 2014]).
# MetHb was detected by measuring absorbance in the 630-640nm range, which is specific from other hemoglobin subforms (oxyhemoglobin, deoxyhemoglobin, and carboxyhemoglobin). Supernatants were removed and erythrocyte pellets were fully lysed and diluted, as described above. The absorption peak for oxyhemoglobin (575nm) and MetHb (630nm) were measured and the EC50 of MetHb formation was determined using non-linear regression analysis (GraphPad Prism).
# [4] = Pharmacokinetics of HEX in mice (plasma, NMR 31P-1H HSQC); format: in vivo
# Procedure: as §1
# [5] = system: P. falciparum strain 3D7; assay: Plasmodium falciparum growth inhibition assay (Picogreen DNA content, three-day incubation); format: cell-based; details: for S.I. + pyruvate (Supplemental Table 4): MetHb EC50 / parasite EC50, with pyruvate; for S.I. - pyruvate (Supplemental Table 4): MetHb EC50 / parasite EC50, without pyruvate; for EC50: Plasmodium falciparum; for S.I. Fold Change (Supplemental Table 4): change in S.I. with versus without pyruvate; for T.I. Fold change: change in T.I. with versus without 1mM pyruvate; for T.I. + pyruvate / T.I. - pyruvate: therapeutic index = [EC50 for MetHb formation]/[EC50 for parasite growth inhibition]; for T.I. + pyruvate: with 1mM pyruvate; for T.I. - pyruvate: without pyruvate
# Procedure: as §2
# (§3) Asynchronous cultures diluted to 1% parasitemia in 100μL wells were subjected to drug dilutions, solvent controls, and untreated uninfected erythrocyte controls in technical duplicates. Following a three-day incubation, DNA content was quantified using Picogreen (Life Technologies), as previously described ([Corbett et al., 2004]). Half-maximal effective concentrations (EC50) were determined from nonlinear regression of three biological replicates (GraphPad Prism).
# [6] = system: P. berghei ANKA; format: in vivo, Swiss Webster mice
# Procedure: (§4) Groups of five female Swiss-Webster mice were injected intraperitoneally (i.p.) with 10^3 luciferase-expressing P. berghei ANKA parasites ([Franke-Fayard et al., 2008]). Forty-eight hours post infection, mice were injected i.p. daily for five days with either 200µL of 2% methylcellulose/0.5% Tween80, 40mg/kg chloroquine, 100mg/kg HEX, 30mg/kg POM-HEX, or 5mg/kg POM-SF. Enolase inhibitors dosing were selected as approximately 3-fold lower than the maximum acutely tolerated dose for each compound by i.p. injection. Day 7 post-infection, mice were injected with 150mg/kg D-luciferin potassium salt in PBS (GoldBio) and imaged on an IVIS 100 and parasite burden assessed (Xenogen LivingImage).
# The glucose mimetic 2-DG and enolase inhibitors POM-HEX, and HEX were evaluated in the P. berghei mouse model of cerebral malarial, as previously described ([Wang et al., 2018]). Briefly, in addition to groups of mice (n = 5) dosed as described above for POM-HEX and HEX, 2-DG was administered to an additional group (n = 5) at 200mg/kg twice daily and all were monitored for survival, parasitemia (blood smear Giemsa), and clinical signs of cerebral malaria (paralysis, deviation of the head, ataxia, convulsions, and coma) over 15 days.
# [7] = set-up: method as in Lin et al., 2020; details: ref Lin et al., 2020; cited from earlier work
# [8] = system: P. falciparum IPC-5202 (chloroquine and artemisinin resistant); assay: Plasmodium falciparum growth inhibition assay, drug-resistant line IPC-5202; format: cell-based; details: read-out: EC50 (nM), P. falciparum IPC-5202
# Procedure: (§5) Banked blood (Saint Louis Children’s Hospital) and fresh blood [healthy donors] was washed and stored at 50% hematocrit at 4°C up to 1 month past the clinical expiration date and collection date, respectively. Parasite strains provided by the Malaria Research and Reference Reagent Resource Center (MR4) as follows: 3D7 (MRA-102); K1 (MRA-159); D10 (MRA-201); and IPC-5202 (MRA-1240). […]
# as §3, with “Prism). […]” for “Prism).”
# (§6) Supplemental Table 5. […] Half-maximal inhibitor concentrations (EC50s) were determined for drug resistant malaria parasites and compared to the sensitive 3D7 strain. The respective EC50s are calculated from each of the independent biological replicates using a non-linear regression of the log of the inhibitor concentration with data from each technical replicate normalized to maximal and minimal growth using the software package GraphPad Prism. […]
# (§7) means ± s.e.m calculated from three biological replicates.
# [9] = system: luciferase-expressing P. berghei ANKA parasites; assay: In vivo efficacy against blood stage parasite burden (luciferase imaging); set-up: species or system Swiss-Webster mice; details: i.p. daily for five days; 30mg/kg POM-HEX, 5mg/kg POM-SF
# Procedure: as §4
# [10] = system: P. falciparum K1 (chloroquine and sulfadoxine-pyrimethamine resistant); assay: Plasmodium falciparum growth inhibition assay, drug-resistant line K1; format: cell-based; details: K1, read-out: EC50 (nM), P. falciparum K1
# Procedure: as §5
# as §3, with “Prism). […]” for “Prism).”
# as §6, §7
# [11] = system: P. falciparum D10 (mefloquine resistant); assay: Plasmodium falciparum growth inhibition assay, drug-resistant line D10; format: cell-based; details: D10, read-out: EC50 (nM), P. falciparum D10
# Procedure: as §5
# as §3, with “Prism). […]” for “Prism).”
# as §6, §7
smiles,measurement,setting,value
O=C1C(P(=O)(O)O)CCCN1O (stereo not drawn) [HEX],half-life,"[1]; monkey, 100 mg/kg sub-cutaneous, serum/plasma, 100 mg/kg",~ 1 hr
same,oral bioavailability (in words),"[1]; monkey, 400 mpk by oral gavage",orally bioavailable
same,time serum concentrations remain above the in vitro EC50 concentrations against Plasmodium,"[1]; non-human primates, 100mg/kg sub-cutaneous",at least four hours
same,plasma concentrations at 1hr,[2],> 500 µM
same,EC50,[3]; read-out: MetHb EC50 + pyruvate (Supplemental Table 4),> 500000 nM
same,EC50,[3]; read-out: MetHb EC50 - pyruvate,> 500000 nM
same,EC50,[3]; read-out: MetHb EC50 - pyruvate (Supplemental Table 4),> 500000 nM
same,"HEX concentration in plasma, 2 hr time point","[4]; 400 mg/kg dose SC, detection limit ~1 µM",undetectable
same,serum half-life,[4]; 400mg/kg sub-cutaneous,minutes
same,concentration at 1 hr,"[4]; female, mouse, plasma, 400 mg/kg dose SC, read-out: HEX concentration in plasma, 1hr after injection",~170 µM
same,S.I. + pyruvate (Supplemental Table 4),[5],27.8
same,S.I. - pyruvate (Supplemental Table 4),[5],26.3
same,EC50,"[5]; 3D7, read-out: Parasite EC50 - pyruvate",19000 ± 1000 nM
same,EC50,"[5]; 3D7, read-out: half maximal effective concentrations (EC50s), parasite growth",> 15000 nM
same,S.I. Fold Change (Supplemental Table 4),[5],1.1
same,T.I. Fold change,[5],1.1
same,selectivity for antiparasitic activity over erythrocyte toxicity (in words),[5]; parasite growth versus MetHb formation,notably selective
same,T.I. + pyruvate,[5],27.8
same,T.I. - pyruvate,[5],26.3
same,survival,"[6]; HEX 100 mg/kg daily from day 2, Mantel-Cox",14 days
same,parasitemia,"[6]; d4, blood smear Giemsa, treated from day 2, HEX 100 mg/kg, 2DG 200 mg/kg, control 7.8±3.3%",3.5±1.3%
same,clinical scores (signs of cerebral malaria),"[6]; d6, HEX 100 mg/kg, vehicle 15.0±7.3",3.8±2.0
same,mice alive on day 15,"[6]; n=5, HEX 100 mg/kg, sacrificed due to high parasitemia and elevated clinical score",two mice remained alive
CC(C)(C)C(=O)OCOP(=O)(OCOC(=O)C(C)(C)C)C1CCCN(O)C1=O (stereo not drawn) [POM-HEX],conversion in mouse plasma (in words),[7],rapidly converted to Hemi-POM-HEX
same,EC50,[8],966 ± 442 nM
same,EC50,"[3]; MetHb formation, absence of 1mM pyruvate, mean ± s.e.m., 500 = highest concentration tested, EC50 not resolved, read-out: MetHb EC50 - pyruvate",1200 ± 190 nM
same,EC50,"[3]; MetHb formation, presence of 1mM pyruvate, mean ± s.e.m., 500 = highest concentration tested, EC50 not resolved, read-out: MetHb EC50 + pyruvate",1400 ± 110 nM
same,effect on parasite burden (in words),[9],does not forestall a lethal parasite burden
same,EC50,[10],1110 ± 530 nM
same,S.I. + pyruvate (Supplemental Table 4),[5],1.5
same,S.I. - pyruvate (Supplemental Table 4),[5],0.4
same,EC50,"[5]; 3D7, 72 h, P. falciparum growth, presence of 1mM pyruvate, mean ± s.e.m., read-out: Parasite EC50 + pyruvate",910 ± 150 nM
same,EC50,"[5]; 3D7, P. falciparum growth, absence of 1mM pyruvate, mean ± s.e.m., 500 = highest concentration tested, EC50 not resolved, read-out: Parasite EC50 - pyruvate",2900 ± 640 nM
same,S.I. Fold Change (Supplemental Table 4),[5],3.7
same,T.I. Fold change,[5],3.7
same,T.I. + pyruvate,[5],1.5
same,T.I. - pyruvate,[5],0.4
same,EC50,[11],1430 ± 540 nM
same,"effect on clinical score, overall survival, cerebral malaria (in words)","[6]; 2DG 200 mg/kg, POM-HEX 30 mg/kg",no more effective than 2-DG; also recorded: does not prevent cerebral malaria
